# Laboratory results published in US8431606B2, “Medicament for treating schizophrenia comprising cilostazol” (Otsuka Pharmaceutical Co., Ltd., priority 2007, dated 2013).
# Experiments:
# Assay type in all cases: in vivo
# [1] = system: locomotion of mice enhanced by administering dizocilpine; experiment: dizocilpine-induced hyperlocomotion in mice; details: male ddY mice; cilostazol 0.03-3.0 mg/kg orally 30 minutes before dizocilpine 0.1 mg/kg s.c.; locomotion measured for 2 hours
# Protocol: In this experiment, cilostazol was studied about the effect affecting the locomotion of mice which was enhanced by administering dizocilpine.
# Male ddY mice (7-8 weeks old) were put in a scanning apparatus of spontaneous motor activity (SCANET SV-10, Melquest, Toyama, Japan). After 30 minutes, vehicle (0.3% CMC) or cilostazol (0.03, 0.1, 0.3, 1.0, and 3.0 mg/kg) was orally administered to the mice, and after additional 30 minutes dizocilpine (0.1 mg/kg) was administered subcutaneously. Then, the locomotion of the mice was measured for 2 hours.
# [2] = system: dizocilpine-induced PPI deficits in mice; experiment: prepulse inhibition of the acoustic startle reflex, dizocilpine-induced PPI deficits in mice; details: dizocilpine 0.1 mg/kg, cilostazol administered one hour before testing, dose dependent manner
# Protocol: The test animals were prepared by similar means of the above Example 2. Cilostazol was administered one hour before testing. Testing was conducted in eight startle devices each consisting of a Plexiglas cylinder (5 cm in diameter) mounted on a Plexiglas platform in a ventilated sound attenuated cubicle with a high-frequency loudspeaker producing all acoustic stimuli. The background noise of each chamber was 65 dB. Movements within the cylinder were detected and transduced by a piezoelectric accelerometer attached to the Plexiglas base and digitized and stored by a computer. Beginning at the stimulus onset, readings were recorded to obtain the animals' startle amplitude. Each section was initiated with a 10 minutes acclimation period followed by six successive trials, which were not included in the analysis. Startle pulse alone (ST110, 110 dB/40 msec); eight different prepulse trials in which either 20-msec-long 69, 73, 77, and 81 dB stimuli were presented alone (P69, P73, P77, P81) or preceded the 110 dB pulse by 100 msec (PP69, PP73, PP77, PP81); and finally one trial in which only the background noise was presented to measure the baseline movements in the cylinder. All trials were presented in a pseudorandom order, and the average intertrial interval (ITI) was […]. The startle data and percentage prepulse inhibition (PPI) were analyzed by MANOVA (two-ways ANOVA).
# [3] = system: model animals prepared with phencyclidine; experiment: re-recognizing test for a new object in model animals prepared with phencyclidine; details: male ICR mice, phencyclidine 10 mg/kg s.c. 10 days
# Protocol: Male ICR mice (6 weeks old, 25-30 g, purchased from Japan SLC, Inc.) were used as experimental animals. The experimental procedure was approved by the laboratory animal ethics committee in the Graduate School of Medicine and School of Medicine, Chiba University. Phencyclidine was subcutaneously administered to the mice in 10 mg/kg once a day for 10 days. […] Twenty four hours after the final administration, re-recognizing test for a new object was carried out. The re-recognizing test for a new object was carried out using a black open-field (50.8×50.8×25.4 cm). The mice were made to be trained in the open-field for three days before starting the re-recognizing test for a new object. Two objects which have almost the same size but different shapes and colors were set separating off in a distance of 35.5 cm, and then the mice were made to seek for 10 minutes. After the seeking, the mice were put back to the gauge. Twenty four hours after the first seeking, a memory retention test was carried out. On this memory retention test, one of the objects was replaced by a new one. The mice were made to seek for 5 minutes, and the time which was taken to seek each object was recorded. The results were shown as a ratio of the seeking time of the new object against that of the two objects. The data were shown as mean±standard deviation. The statistical analyses thereof were carried out using one-way ANOVA and post-hoc Bonferroni test. A p-value of 0.05 or less was considered as a statistical significance.
smiles,measurement,setting,value
"O=C1CCc2cc(OCCCCc3nnnn3C3CCCCC3)ccc2N1 [cilostazol, 6-[4-(1-cyclohexyl-1H-tetrazol-5-yl)butoxy]-3,4-dihydrocarbostyril]",locomotion enhanced by administering dizocilpine,[1],significantly inhibited
same,PPI deficits caused by administration of dizocilpine,[2],significantly inhibited
same,condition of schizophrenia caused by phencyclidine (ratio of the seeking time of the new object),[3]; cilostazol 3 mg/kg orally once a day for two weeks,improved significantly
same,condition of schizophrenia caused by phencyclidine (ratio of the seeking time of the new object),[3]; cilostazol 10 mg/kg orally once a day for two weeks,improved significantly
same,condition of schizophrenia caused by phencyclidine (ratio of the seeking time of the new object),[3]; cilostazol 30 mg/kg orally once a day for two weeks,improved significantly
same,condition of schizophrenia caused by phencyclidine (ratio of the seeking time of the new object),"[3]; cilostazol orally once a day for two weeks, dose-dependently",improved
